Data on five compounds can be found in US20260217767A1, “NOVEL A4B7 THIOETHER PEPTIDE DIMER ANTAGONISTS” (Protagonist Therapeutics, Inc., priority 2014, published 2026).

SMILES strings stand for the structures. *1 amine or outer side, *2 acyl side, *3 side chain or, on linkers, in order; H or OH if unused. Where a SMILES comes first, the peptide text is derived from it. Bridges are numbered along the chain shown (N, C = ends). Roman numbers before positions name the chains, in order. [ ]: non-standard residue; d: D form. Phe(4-tBu) = CC(C)(C)c1ccc(C[C@H](N)C(=O)O)cc1; Bip = N[C@@H](Cc1ccc(-c2ccccc2)cc1)C(=O)O; Diglycolyl = O=C(COCC(=O)[*:2])[*:1]; NMeR = CN[C@@H](CCCNC(=N)N)C(=O)O; β3hE = N[C@@H](CCC(=O)O)CC(=O)O; X1 = O=C(c1ccccc1C[*:2])[*:1]; Pen = CC(C)(S)[C@H](N)C(=O)O

The test system of assay [1] is CD4+/CD45RO+ memory T cells. Kind of assay: PBMC Memory T Cell Adhesion Assay. The assay is classed as cell-based, human. The conditions noted are these: thioether monomer peptides, Table 6. The method, then:
PBMC Memory T Cell Adhesion Assay
Fresh CD4+/CD45RO+ memory T cells were isolated from human peripheral blood mononuclear cell (PBMC) donors by Aragen Bioscience Inc. (Morgan Hill, CA). The assay plate was prepared using IgG Fc capture antibody (donkey anti human) immobilized at 500 ng/well in 50 mM sodium bicarbonate buffer, pH 9.5, ON, 4 C onto a Greiner Fluotrac plate (100 ul per well). The plate was rinsed two time with Blocking Buffer (25 mM Tris HCl, pH7.5, 150 mM NaCl, 1.5% BSA, 0.05% Tween), and blocked with Blocking Buffer for 2 hours at 37 C or 5 hours at RT using 200 ul per well. The Blocking Buffer was removed and either MAdCAM-1 or VCAM-1 at 400 ng/well in Blocking Buffer was added and the plate incubated overnight at 4 C (100 ul per well). The plate was washed two times with Blocking Buffer, and rinsed once with 200 ul Binding Media (DMEM phenol red free, 10 mM HEPES, 1×Na pyruvate, 1× Glutamine, and supplemented with 1 mM MnC12 prior to use). To prepare cells, approximately 25 million CD4+/CD45RO+ memory T cells were counted by trypan blue exclusion using a haemocytometer to determine viability and cell count. The cells were transferred to a 50 ml conical tube, and centrifuged at 1200 rpm for 10 minute. The media was aspirated and the cell pellet resuspended in 15 ml Binding Media. The cells were centrifuged again and resuspended in the appropriate amount of Binding Media to be used for assays (50 ul of cells per well at 2× the final density). To each well, and equal volume (50 ul) of test compound was added and the plate was incubated for 1.5 hours at 37 C, 5% CO2. Each well was rinsed 3× with 150 ul per well of Binding Media. […] The plate was incubated at 37 C, 5% CO2, for 45 minutes. The plate was protected from light by using black adhesive seals. Fluorescence intensity was measured using a Molecular Devices Gemini EM Fluorescent Plate Reader (Ex 485/Em530, Bottom Read, Reading Sensitivity=20). IC50 curves are generated using Graph Pad Prism and the curves analyzed using analyzed using a non-linear regression (four parameters) algorithm. The log (concentration) versus RFU (Ex485/Em530) was plotted to determine IC50 values.

Another assay has as its target T1, α4β1 (Homo sapiens, UniProt P05556+P13612).
T1 construct: purchased R&D Systems 5668-A4
The assay can be described thus: α4β1-VCAM Competition ELISA. The assay is classed as binding. The conditions noted are these: thioether peptide dimers, Table 7; read-out: ELISA A4B1. The gist of the method: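 rh VCAM-1-Fc coated plates; α4β1 (final 60 nM) and peptide (final 100 μM) incubated 2 h at 37° C. in 50 mM Tris-HCl pH 7.6, 100 mM NaCl, 1 mM MnCl2 or MgCl2, 0.05% Tween-20. Bound integrin detected with anti-CD49d 9F10 and HRP anti-mouse IgG, TMB read at 450 nm.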

In a further assay the target is Jurkat E6.1 cells (Homo sapiens, UniProt P05556+P13612). The assay can be described thus: α4β1-VCAM Cell Adhesion Assay. The note with it: thioether peptide dimers, Table 7; read-out: Cell Adhesion A4B1. The class given is cell-based. The gist of the method:
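Jurkat E6.1 cells (200,000 per well, in DMEM with 0.1% BSA and 1 mM MnCl2) allowed to adhere to rh VCAM-1 Fc-coated wells with serially diluted peptide for 30-45 min at 37° C. After washing, bound cells quantified by MTT absorbance at 570 nm, cell-free background subtracted, for dose response.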

Chain of Jurkat E6.1 cells (P13612 34-1032): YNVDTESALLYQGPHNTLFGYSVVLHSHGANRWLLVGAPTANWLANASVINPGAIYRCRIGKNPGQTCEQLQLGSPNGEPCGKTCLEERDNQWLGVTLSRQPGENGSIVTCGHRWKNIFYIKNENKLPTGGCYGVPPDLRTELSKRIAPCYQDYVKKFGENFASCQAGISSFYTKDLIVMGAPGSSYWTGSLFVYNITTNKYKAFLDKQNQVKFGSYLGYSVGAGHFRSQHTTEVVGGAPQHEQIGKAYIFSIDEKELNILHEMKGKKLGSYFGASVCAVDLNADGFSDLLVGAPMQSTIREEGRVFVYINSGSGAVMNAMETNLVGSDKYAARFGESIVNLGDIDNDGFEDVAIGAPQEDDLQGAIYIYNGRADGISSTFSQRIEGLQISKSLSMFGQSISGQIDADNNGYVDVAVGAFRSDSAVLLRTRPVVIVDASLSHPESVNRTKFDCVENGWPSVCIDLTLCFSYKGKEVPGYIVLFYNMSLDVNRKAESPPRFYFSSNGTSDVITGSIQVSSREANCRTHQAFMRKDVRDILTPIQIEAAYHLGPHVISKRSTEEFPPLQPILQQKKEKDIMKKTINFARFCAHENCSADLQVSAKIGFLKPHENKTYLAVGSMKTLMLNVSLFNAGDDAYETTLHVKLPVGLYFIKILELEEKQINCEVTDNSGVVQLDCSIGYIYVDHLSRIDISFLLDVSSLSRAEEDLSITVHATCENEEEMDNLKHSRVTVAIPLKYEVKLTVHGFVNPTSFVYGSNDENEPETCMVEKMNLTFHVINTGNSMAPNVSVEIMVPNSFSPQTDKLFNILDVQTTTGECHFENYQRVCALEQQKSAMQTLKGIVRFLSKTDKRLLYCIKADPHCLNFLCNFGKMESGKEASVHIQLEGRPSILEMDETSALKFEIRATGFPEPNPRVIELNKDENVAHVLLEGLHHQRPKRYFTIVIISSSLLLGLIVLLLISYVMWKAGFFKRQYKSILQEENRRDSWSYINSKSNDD
Chain of Jurkat E6.1 cells (P05556 21-798): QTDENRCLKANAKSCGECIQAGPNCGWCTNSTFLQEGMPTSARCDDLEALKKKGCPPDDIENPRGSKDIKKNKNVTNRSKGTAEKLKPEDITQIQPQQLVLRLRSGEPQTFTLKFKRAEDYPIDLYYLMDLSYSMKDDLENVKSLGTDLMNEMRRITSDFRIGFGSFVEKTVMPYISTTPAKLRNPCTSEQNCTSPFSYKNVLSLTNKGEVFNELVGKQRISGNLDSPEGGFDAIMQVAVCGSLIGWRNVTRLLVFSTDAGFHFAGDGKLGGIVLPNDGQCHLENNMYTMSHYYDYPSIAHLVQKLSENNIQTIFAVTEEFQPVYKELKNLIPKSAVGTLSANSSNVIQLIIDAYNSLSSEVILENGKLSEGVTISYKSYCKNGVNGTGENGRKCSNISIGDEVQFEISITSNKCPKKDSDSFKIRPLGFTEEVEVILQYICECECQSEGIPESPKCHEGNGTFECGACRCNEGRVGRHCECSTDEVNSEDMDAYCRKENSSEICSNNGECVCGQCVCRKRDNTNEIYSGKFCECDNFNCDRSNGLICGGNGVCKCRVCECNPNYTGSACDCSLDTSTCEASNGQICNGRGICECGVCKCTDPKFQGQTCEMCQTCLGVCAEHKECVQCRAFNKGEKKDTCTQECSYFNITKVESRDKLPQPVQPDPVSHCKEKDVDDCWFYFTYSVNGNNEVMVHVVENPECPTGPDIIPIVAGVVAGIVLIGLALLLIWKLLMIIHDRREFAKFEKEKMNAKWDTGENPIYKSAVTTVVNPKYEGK
T1 sequence (P13612 34-977 limits assumed): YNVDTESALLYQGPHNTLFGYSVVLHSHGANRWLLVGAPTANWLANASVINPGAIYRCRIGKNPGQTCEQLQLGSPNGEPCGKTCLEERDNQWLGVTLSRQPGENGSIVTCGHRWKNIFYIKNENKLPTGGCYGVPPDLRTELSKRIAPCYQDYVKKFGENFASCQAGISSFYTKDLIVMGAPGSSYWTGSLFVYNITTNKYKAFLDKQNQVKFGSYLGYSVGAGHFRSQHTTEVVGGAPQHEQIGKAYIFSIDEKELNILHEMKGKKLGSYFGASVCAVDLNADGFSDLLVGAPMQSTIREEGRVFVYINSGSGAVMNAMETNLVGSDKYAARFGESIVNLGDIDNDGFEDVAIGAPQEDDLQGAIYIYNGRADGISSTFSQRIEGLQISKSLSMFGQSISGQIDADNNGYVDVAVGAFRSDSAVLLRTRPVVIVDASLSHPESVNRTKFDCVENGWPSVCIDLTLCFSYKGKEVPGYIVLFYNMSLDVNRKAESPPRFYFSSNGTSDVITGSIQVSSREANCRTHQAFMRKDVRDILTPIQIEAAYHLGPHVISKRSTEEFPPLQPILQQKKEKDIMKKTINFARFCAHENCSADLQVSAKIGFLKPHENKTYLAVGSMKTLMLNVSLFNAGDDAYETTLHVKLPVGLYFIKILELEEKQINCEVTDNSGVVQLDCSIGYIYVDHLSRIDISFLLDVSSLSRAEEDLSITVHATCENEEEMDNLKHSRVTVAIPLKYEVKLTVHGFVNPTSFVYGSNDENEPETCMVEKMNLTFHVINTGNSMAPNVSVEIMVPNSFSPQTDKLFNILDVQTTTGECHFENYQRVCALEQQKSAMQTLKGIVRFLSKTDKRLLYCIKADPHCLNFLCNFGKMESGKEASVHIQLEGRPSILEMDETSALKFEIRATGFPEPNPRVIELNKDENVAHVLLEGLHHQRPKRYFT
T1 sequence (P05556 21-728 limits assumed): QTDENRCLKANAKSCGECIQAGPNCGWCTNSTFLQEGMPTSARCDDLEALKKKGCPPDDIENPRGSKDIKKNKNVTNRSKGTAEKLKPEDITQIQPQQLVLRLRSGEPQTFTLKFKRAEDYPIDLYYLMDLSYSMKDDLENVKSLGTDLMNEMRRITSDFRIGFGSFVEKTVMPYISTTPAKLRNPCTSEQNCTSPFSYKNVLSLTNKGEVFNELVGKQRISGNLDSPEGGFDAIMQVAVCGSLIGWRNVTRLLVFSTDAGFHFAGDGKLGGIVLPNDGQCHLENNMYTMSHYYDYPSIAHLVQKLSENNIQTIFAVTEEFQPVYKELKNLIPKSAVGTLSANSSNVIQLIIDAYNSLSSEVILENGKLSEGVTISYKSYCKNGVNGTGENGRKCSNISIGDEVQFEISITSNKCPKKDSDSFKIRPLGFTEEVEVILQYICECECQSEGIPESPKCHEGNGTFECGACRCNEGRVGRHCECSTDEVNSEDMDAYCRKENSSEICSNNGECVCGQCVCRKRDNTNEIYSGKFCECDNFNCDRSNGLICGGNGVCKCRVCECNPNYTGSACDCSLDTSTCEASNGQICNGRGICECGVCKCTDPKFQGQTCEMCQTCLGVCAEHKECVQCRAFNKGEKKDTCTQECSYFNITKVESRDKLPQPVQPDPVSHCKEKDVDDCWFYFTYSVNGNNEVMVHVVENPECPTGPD

In assay [1], `CC(C)C[C@@H]1NC(=O)[C@H]([C@@H](C)O)NC(=O)[C@H](CC(=O)O)NC(=O)[C@H](CO)NC(=O)[C@H](CCCNC(=N)N)N(C)C(=O)c2ccccc2CSC(C)(C)[C@@H](C(=O)N[C@@H](Cc2c[nH]c3ccccc23)C(=O)N[C@H](CCC(=O)O)C(=O)N[C@@H](Cc2ccccc2)C(N)=O)NC1=O` [compound 101] (HELM PEPTIDE1{[meR].S.D.T.L.[Pen].W.[dE].F.[am]}|CHEM1{[O=C(c1ccccc1C[*:2])[*:1]]}$PEPTIDE1,CHEM1,1:R1-1:R1|PEPTIDE1,CHEM1,6:R3-1:R2$$$V2.0) showed an IC50 of 100 to 1000 nM.

For `CC(C)C[C@@H]1NC(=O)[C@H]([C@@H](C)O)NC(=O)[C@H](CC(=O)O)NC(=O)[C@H](CO)NC(=O)[C@H](CCCNC(=N)N)N(C)C(=O)c2ccccc2CSC(C)(C)[C@@H](C(=O)N[C@@H](Cc2ccc(-c3ccccc3)cc2)C(=O)N[C@@H](CCC(=O)O)CC(N)=O)NC1=O` [compound 133] ([NMeR]SDTL[Pen][Bip][β3hE]-NH2; linker N-6 via X1), the IC50 in assay [1] fell in the range of 100 to 1000 nM.

In assay [1], `CC(C)C[C@@H]1NC(=O)[C@H]([C@@H](C)O)NC(=O)[C@H](CC(=O)O)NC(=O)[C@H](CO)NC(=O)[C@H](CCCNC(=N)N)N(C)C(=O)c2ccccc2CSC(C)(C)[C@@H](C(=O)N[C@@H](Cc2ccc(C(C)(C)C)cc2)C(=O)N[C@@H](CCC(=O)O)CC(N)=O)NC1=O` [compound 134] ([NMeR]SDTL[Pen][Phe(4-tBu)][β3hE]-NH2; linker N-6 via X1) yielded an IC50 of 25 to 100 nM.

Regarding `CC(C)C[C@@H]1NC(=O)[C@H]([C@@H](C)O)NC(=O)[C@H](CC(=O)O)NC(=O)[C@H](CO)NC(=O)[C@H](CCCNC(=N)N)N(C)C(=O)c2ccccc2CSC(C)(C)[C@@H](C(=O)N[C@@H](Cc2ccc(-c3ccccc3)cc2)C(=O)N[C@H](CCC(=O)O)C(=O)N[C@H](CCCCNC(=O)COCC(=O)NCCCC[C@@H](NC(=O)[C@@H](CCC(=O)O)NC(=O)[C@H](Cc2ccc(-c3ccccc3)cc2)NC(=O)[C@H]2NC(=O)[C@H](CC(C)C)NC(=O)[C@H]([C@@H](C)O)NC(=O)[C@H](CC(=O)O)NC(=O)[C@H](CO)NC(=O)[C@H](CCCNC(=N)N)N(C)C(=O)c3ccccc3CSC2(C)C)C(=O)O)C(=O)O)NC1=O` [compound 208] (I: [NMeR]SDTL[Pen][Bip][dE][dK]-OH / II: [NMeR]SDTL[Pen][Bip][dE][dK]-OH; linker I:9-II:9 via Diglycolyl; linker I:N-I:6, II:N-II:6 via X1), the IC50 was 25 to 100 nM at α4β1 and greater than 100000 nM on Jurkat E6.1 cells.

As for `CC(C)C[C@@H]1NC(=O)[C@H]([C@@H](C)O)NC(=O)[C@H](CC(=O)O)NC(=O)[C@H](CO)NC(=O)[C@H](CCCNC(=N)N)N(C)C(=O)c2ccccc2CSC(C)(C)[C@@H](C(=O)N[C@@H](Cc2c[nH]c3ccccc23)C(=O)N[C@H](CCC(=O)O)C(=O)N[C@H](CCCCNC(=O)COCC(=O)NCCCC[C@@H](NC(=O)[C@@H](CCC(=O)O)NC(=O)[C@H](Cc2c[nH]c3ccccc23)NC(=O)[C@H]2NC(=O)[C@H](CC(C)C)NC(=O)[C@H]([C@@H](C)O)NC(=O)[C@H](CC(=O)O)NC(=O)[C@H](CO)NC(=O)[C@H](CCCNC(=N)N)N(C)C(=O)c3ccccc3CSC2(C)C)C(=O)O)C(=O)O)NC1=O` [compound 209] (I: [NMeR]SDTL[Pen]W[dE][dK]-OH / II: [NMeR]SDTL[Pen]W[dE][dK]-OH; linker I:9-II:9 via Diglycolyl; linker I:N-I:6, II:N-II:6 via X1), the IC50 was 100 to 1000 nM at α4β1 and greater than 100000 nM on Jurkat E6.1 cells.
